{"source": "paper PMC8784098", "about": "(Proceedings of the National Academy of Sciences of the …, 2022)", "key": {"PS1 fibroblasts [1]": {"tested_on": "PS1 fibroblasts", "assay": "Phospholipid accumulation by LipidTOX", "type": "cell-based, human", "details": "10 μM, 24 h"}, "APP/PS1 mice": {"tested_on": "APP/PS1 mice", "type": "in vivo, mouse", "details": "p.o., KARI 201 1, 5, or 10 mg⋅kg−1, AMI 100 mg⋅kg−1"}, "ASM [2]": {"target": "T1, ASM (Homo sapiens, UniProt P17405)", "T1 sequence (P17405 47-631)": "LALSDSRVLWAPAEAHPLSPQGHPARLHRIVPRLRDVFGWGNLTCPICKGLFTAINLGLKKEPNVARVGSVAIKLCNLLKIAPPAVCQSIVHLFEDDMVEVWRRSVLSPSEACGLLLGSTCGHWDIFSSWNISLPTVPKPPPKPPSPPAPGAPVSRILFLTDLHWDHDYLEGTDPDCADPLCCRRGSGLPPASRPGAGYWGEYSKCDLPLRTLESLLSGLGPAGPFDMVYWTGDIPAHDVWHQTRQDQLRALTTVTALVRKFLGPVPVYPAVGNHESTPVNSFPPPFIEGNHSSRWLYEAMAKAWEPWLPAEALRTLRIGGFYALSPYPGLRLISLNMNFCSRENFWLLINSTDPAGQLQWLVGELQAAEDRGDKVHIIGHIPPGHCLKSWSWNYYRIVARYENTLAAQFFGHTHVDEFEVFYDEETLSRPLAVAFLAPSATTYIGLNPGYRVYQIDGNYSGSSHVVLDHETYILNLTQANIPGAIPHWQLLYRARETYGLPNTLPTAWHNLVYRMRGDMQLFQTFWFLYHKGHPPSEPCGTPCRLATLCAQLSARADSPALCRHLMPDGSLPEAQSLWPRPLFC", "assay": "ASM activity in AD patient", "type": "cell-based", "details": "PS1 fibroblasts, 10 μM, 30 min"}, "ASM [3]": {"target": "T1, ASM", "assay": "ASM activity after leupeptin preincubation in PS1 fibroblasts", "type": "cell-based", "details": "25 µM leupeptin 24 h, then compound 30 min"}, "PS1 fibroblasts [4]": {"tested_on": "PS1 fibroblasts", "assay": "Ceramide production in PS1 fibroblasts", "type": "cell-based, human", "details": "10 μM, 30 min"}, "secretory ASM": {"target": "T2, secretory ASM (Homo sapiens, UniProt P17405)", "T2 sequence (P17405 47-631)": "T1 sequence (P17405 47-631)", "assay": "Secretory ASM activity in PS1-derived supernatant medium", "type": "biochemical", "details": "P-sup, assay buffer with zinc, 10 μM, 1 h"}}, "data": [{"smiles": "CN(C)CCC=C1c2ccccc2CCc2ccccc21", "note": "[AMI, amitriptyline]", "values": [{"measurement": "accumulation of phospholipids (LipidTOX MFI)", "setting": "PS1 fibroblasts [1]", "value": "induced accumulation of phospholipids"}, {"measurement": "Survival", "setting": "APP/PS1 mice", "value": "not affected"}, {"measurement": "body weight", "setting": "APP/PS1 mice", "value": "not affected"}, {"measurement": "ASM activity in cell lysates", "setting": "ASM [2]", "value": "efficiently inhibited"}, {"measurement": "effect of leupeptin preincubation on ASM inhibition", "setting": "ASM [3]", "value": "prevented ASM inhibition"}, {"measurement": "ceramide production", "setting": "PS1 fibroblasts [4]", "value": "decreased"}, {"measurement": "secretory ASM activity", "setting": "secretory ASM", "value": "did not inhibit ASM activity"}]}]}
